Drawing on the Kinase Knowledgebase extract (Sharma et al. 2016), this text covers IC100, inhibition and IC50 for 11 molecules.

Structures are written as SMILES.

Test [1] concerns the target EGFR (UniProt P00533). The conditions noted are these: for inhibition: concentration not given here.
The target in test [2] is EGFR (Hamster) (UniProt P00533). Conditions: for IC50: er22; for inhibition: er22, dose or concentration not given here.
Chain of EGFR (Hamster) (P00533 whole entry, looked up): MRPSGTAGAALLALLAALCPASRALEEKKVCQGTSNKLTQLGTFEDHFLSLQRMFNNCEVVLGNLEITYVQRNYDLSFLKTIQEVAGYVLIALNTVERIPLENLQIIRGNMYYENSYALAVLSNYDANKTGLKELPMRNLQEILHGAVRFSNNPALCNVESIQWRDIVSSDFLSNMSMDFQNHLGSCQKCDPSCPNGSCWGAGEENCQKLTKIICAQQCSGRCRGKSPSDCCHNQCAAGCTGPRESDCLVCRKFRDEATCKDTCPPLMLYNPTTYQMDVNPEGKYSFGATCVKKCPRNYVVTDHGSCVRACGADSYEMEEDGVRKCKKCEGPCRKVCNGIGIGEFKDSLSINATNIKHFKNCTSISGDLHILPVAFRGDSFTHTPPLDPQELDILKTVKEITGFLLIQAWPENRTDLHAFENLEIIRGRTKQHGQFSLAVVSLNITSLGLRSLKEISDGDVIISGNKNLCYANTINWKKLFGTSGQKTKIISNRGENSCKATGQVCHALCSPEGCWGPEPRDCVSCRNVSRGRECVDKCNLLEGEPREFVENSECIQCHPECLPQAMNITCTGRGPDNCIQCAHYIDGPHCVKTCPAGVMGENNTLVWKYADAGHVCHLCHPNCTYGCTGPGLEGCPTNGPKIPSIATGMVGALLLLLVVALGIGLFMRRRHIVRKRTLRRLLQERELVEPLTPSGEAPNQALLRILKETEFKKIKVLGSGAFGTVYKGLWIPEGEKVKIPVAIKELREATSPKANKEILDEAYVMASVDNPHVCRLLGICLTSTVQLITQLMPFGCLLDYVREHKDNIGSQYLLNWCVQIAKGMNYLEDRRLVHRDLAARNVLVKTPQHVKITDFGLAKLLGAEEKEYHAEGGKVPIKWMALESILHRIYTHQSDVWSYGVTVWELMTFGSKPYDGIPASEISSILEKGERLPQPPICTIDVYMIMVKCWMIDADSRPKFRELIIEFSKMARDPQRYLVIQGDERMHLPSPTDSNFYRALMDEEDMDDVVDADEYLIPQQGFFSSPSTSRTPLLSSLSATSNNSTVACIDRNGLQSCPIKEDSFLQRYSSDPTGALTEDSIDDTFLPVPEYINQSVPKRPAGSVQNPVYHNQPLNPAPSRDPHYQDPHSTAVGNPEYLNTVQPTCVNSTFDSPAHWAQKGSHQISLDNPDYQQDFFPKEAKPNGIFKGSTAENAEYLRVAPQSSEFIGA

Chain of EGFR (P00533 whole entry, looked up): as above

Regarding `O=C(Oc1ccc2ccccc2c1)c1cc(NCc2cc(O)ccc2O)ccc1O`, the IC100 in test [1] was found to be 0.09 µM.

Molecule `CC(COC(=O)c1cc(N=Cc2cc(O)ccc2O)ccc1O)CC(C)(C)C` (configuration not stated) yielded an inhibition in test [1] of 0%.

Take `O=C(OCCC1[C@H]2C[C@@H]3C[C@@H](C[C@H]1C3)C2)c1cc(NCc2cc(O)ccc2O)ccc1O` (some centres not stated): the IC50 in test [1] was above 5 µM; in test [2], 1.25 µM. This molecule gave an inhibition in test [1] of 0%.

Consider `O=C(Oc1cccc(O)c1)c1cc(NCc2cc(O)ccc2O)ccc1O`, for which, in test [2], the concentration for half-maximal inhibition (IC50) was above 5 µM and the inhibition is 0%.

In test [2], `CC(C)(C)CCOC(=O)c1cc(N=Cc2cc(O)ccc2O)ccc1O` displayed an IC50 above 2 µM and an inhibition of 0%.

Molecule `O=C(Cc1cc(N=Cc2cc(O)ccc2O)ccc1O)NOCc1ccccc1` came in with an inhibition in test [2] of 61%.

On to `CC(C)(C)OC(=O)c1cc(N=Cc2cc(O)ccc2O)ccc1O`, for which the 50% inhibitory concentration (IC50) in test [2] was above 10 µM.

As to `CCCCCCCCCCCCCCCCOC(=O)c1cc(NCc2cc(O)ccc2O)ccc1O`, the inhibition in test [1] and in test [2] was 0% in each case.

As to `CONC(=O)c1cc(N=Cc2cc(O)ccc2O)ccc1O`, the half-inhibitory concentration (IC50) in test [2] is above 100 µM.

Regarding `CC(CCOC(=O)c1cc(NCc2cc(O)ccc2O)ccc1O)CC(C)(C)C` (configuration not stated), the inhibition in test [1] was 0%.

As for `CC(C)(C)ONC(=O)c1cc(N=Cc2cc(O)ccc2O)ccc1O`, in test [2], the IC50 was above 20 µM and the inhibition is 0%.

In general, inhibition refers to the percentage by which the read-out fell short of the control. For orientation: IC50 means the concentration that inhibits the measured activity by half.
